Consider 9 compounds from PMC12261321, “Inhibitors of the Bacterioferritin Ferredoxin Complex Dysregulate Iron Homeostasis and Kill and Biofilm-Embedded Cells” (ACS Infectious Diseases, 2025).

The structures appear in SMILES notation. Values after ≈ are worked out from the molar mass of the structure shown.

Series [1] is described as follows: Determination of compound aqueous solubility in M63 media. The series is classed as physicochemical. The following applies: in M63 media at 35 °C. The method, then:
Determination of Compound Aqueous Solubility. Compound stocks (100 mM in DMSO) were prepared from […]
powder and then further diluted with DMSO to prepare 20 mM working solutions, which were diluted as needed […]
in DMSO. 15 µL o f the DMSO solution was then d iluted to a final volume o f 1.0 mL in M63 media. Six solutions […]
were prepared for each compound, each with a distinct concentration and 1.5% DMSO (v/v). 700 µL of each […]
compound solution was transferred to a polystyrene 48-well plate (VWR), followed by acquisition of UV-vis […]
spectra (300 to 700 nm) with the aid of an Epoch 2 microplate reader (B i o Te k ). […]
Following the acquisition of UV-vis spectra, each of the wells in the plate was inspected under a […]
microscope for evidence of precipitation. Evidence of precipitation at any given concentration was determined by observing a shift in the baseline of the UV-vis spectra relative to the blank (M63 media) and/or evidence of visual precipitation with the aid of a micros cope. […]

The next series has as its target T1, recombinant Pa BfrB (Pseudomonas aeruginosa, UniProt Q9HY79).
T1 construct: made in house; host or cells: E. coli
Kind of series: Dissociation constant (Kd), fluorescence quenching titration of apo Pa BfrB. The series is classed as binding, P. aeruginosa. The method, then: Measurement of Dissociation Constant (Kd) R ecombinant Pa BfrB was expressed in E. coli and purified as previously reported.19 Apo-BfrB (devoid of heme) was utilized for the measurements to prevent heme-driven fluorescence quenching. A 0.5 mL solution contai ning 0.01 µM apo Pa-BfrB in PBS (pH = 7.4) containing0.5% DMSO was plac ed into a 1 cm quartz cuvette wh ere it was titrated with aliq uots of compound dissolved in a 50% (v/v) PBS/DMSO solution. The fluorescence quenching brought by the addition of each aliquot was monitored with the aid of an Agilent Cary Fluorometer , with excitation at 280 nm, emission at 320- 470 nm, 10 x10 nm slit width, and an average of 5 scans per spectrum. Th e binding assay included at least 8 aliquots spanning from ~ 0.1 […]
A control titration was carried out by titrati ng compound into PBS buffer. The Kd was cal culated by fitting the data to equation S4, w here Fb is the fraction bound and Fmax is the fraction bound at saturating compound concentration.
FFbb = FFmmmmmm ? [ccccmmccccccmmcc ]? (S4) […]

Another series concerns P. aeruginosa PAO1. Kind of series: Half maximal inhibitory concentration (IC50), planktonic growth (CFU/mL). The series is classed as cell-based. The note with it: M63 media, 18 h. The method, then:
Measurement of Half Maximal Inhibitory Concentration (IC50). IC50 values were determined as reported earlier13 with some modifications. Compound stock solutions in DMSO (100 mM and 10 mM) were prepared from powd er. To prep are the cell susp ensions utilized in the measu rements, starter cultures o f P. aeru ginosa wer e diluted to an optical density at 600 nm (OD600) = 0.005 in fresh LB media (5 mL) and then cultured at 37°C and 220 rpm for 4 h prior to diluting to an OD600 = 0.0001 in M63. A small volume of compound stock solution w as further diluted in DMSO to 30 µL and then diluted in M63 cell suspension to a final volume of 2.0 mL. The resultant solution was placed in a well of a 96-well plate and then serially 2-fold diluted in M63 cell suspension to produce 6 distinct com pound concent rations, each with 1.5% DMSO. Th e plate was co ver ed and incubated for 18 h at 35 °C in a Synergy H1 plate reader (Biotek). The resultant cell cultures were serially diluted in PBS and then plated on PI Agar plates (PIA; BD biosciences) for counting viable cells (CFU/mL). The % growth was calculated from the ratio CFU/mL(t reat ed )/CFU/mL(untreated control). To calculate the IC50 values, the % growth was plotted as a function of compound concentration expressed as log[compound] ( µM), and fitted to equation S1 describing the sigmoid- shaped response pattern, 14 where b is the slope factor, max is the upper asymptote (plateau), and min is the lower asymptote. IC 50 values are the average and standard deviation from three independent experiments , each conducted with thr ee techni cal replicates.

For a further series, the system named is A. baumannii 5075. Briefly: MIC, broth microdilution in M63 media. The series is classed as cell-based. The method, then:
(§1) Measurement of Minimum Inhibitory Concentrations (MIC). The MIC of compounds and select ed antibiotics against three strains of A. baumannii (5075, ATCC 17988, and ATCC 19606) were determined via the broth microdilution method according to Clinical and Laboratory Standard Instit ute (CLSI) guidelines,15 but culturing […]
(§2) To establish a 2-fold dilution series of compound, 985 μ L of diluted cells was mixed with 15 μ L of compound […]
(§3) dissolved in DMSO, such that the resultant solution had the highest concentration of compound or antibiotic tested and 1.5% DMSO. To carry out the serial dilution from the highest compound concentration, a 150 μ L solution of higher concentration compound or antibiotic was mixed with 150 μ L of cell suspension containing 1.5% DMSO in the wells of a 96 well plate.
(§4) Th e 96 well plate was in cubated for 20 hat 35 °C with continuous orbital shaking (205 cpm) in an Epoch2 microplate reader (BioTek), monitoring the growth by […]
(§5) following the OD600. […]
(§6) FFFFFF = MMMMMMAA iiii ccllccbbiiiicccciilliiMMMMMMAA+ MMMMMMBB iiii ccllccbbiiiicccciilliiMMMMMMBB S2 Time Kill Assays. Time-kill assays were performed with A. baumannii 507 5 by the broth macro- dilution method in M63- medium containing 1.5% DMSO. An overnight culture was diluted to approximately 5 x10^5 CFU/mL in fresh M63 media. The test solutions were prepared by adding compound (KM-5- 35, or KM-5- 25) dissolved in DMSO to 5 mL of diluted cell suspension to yield a solution of the desired compound concentration and 1.5% DMSO, or by the addition of antibiotic dissolved in water and a small volume of DMSO to produce the desired
Background: Dilution methods test growth across graded concentrations, often in twofold steps.

The test system of a further series is A. baumannii ATCC 17978. Briefly: MIC, broth microdilution in M63 media. The series is classed as cell-based. The protocol:
as §1, §2, §3, §4, §5, §6

The test system of a further series is A. baumannii ATCC 19606. Briefly: MIC, broth microdilution in M63 media. The series is classed as cell-based. The method, then: as §1, §2, §3, §4, §5, §6
Setting [2] is: M63 media with 1.5% DMSO, 35 °C, aqueous buffer, kinetic from dmso stock.
[3] abbreviates: Pseudomonas aeruginosa, PAO1, planktonic cells.
The mark [4] stands for this setting: Acinetobacter baumannii, 5075, 20 h.
Setting [5] is: Acinetobacter baumannii, ATCC17978, 20 h.
The mark [6] stands for this setting: Acinetobacter baumannii, ATCC19606, 20 h.

T1 sequence (Q9HY79 whole entry): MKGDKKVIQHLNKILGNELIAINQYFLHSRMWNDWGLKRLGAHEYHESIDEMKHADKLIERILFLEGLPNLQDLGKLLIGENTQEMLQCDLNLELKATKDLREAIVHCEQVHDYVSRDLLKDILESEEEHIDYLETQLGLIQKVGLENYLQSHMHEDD

A word on the solubility: it is the concentration that dissolves in the medium under given conditions. For orientation: Kd means the free concentration of one partner at which half of the binding sites on the other are occupied at equilibrium, for simple one-to-one binding. A word on the IC50: it is the concentration that gives 50% inhibition. Usually MIC stands for the smallest concentration in the dilution series that meets the test's criterion for growth inhibition. Lower therefore signals inhibition by little substance. `O=C1NC(=O)c2c(NCc3cc(F)ccc3O)cccc21` [JAG-5-7] displayed a solubility at 4 h in series [1] (setting [2]) of 180 µM (≈ 51.5 µg/mL). Also, the Kd at recombinant Pa BfrB came to 24 ± 6 µM. Also, the IC50 in the series with P. aeruginosa PAO1 (setting [3]) was found to be 83 ± 19 µM. In addition, the MIC against A. baumannii 5075 (setting [4]), in the series on A. baumannii ATCC 17978 (setting [5]) and against A. baumannii ATCC 19606 (setting [6]) was 60 µM (≈ 17.2 µg/mL) in each case.
Regarding `O=C1NC(=O)c2c(NCc3cc(Cl)ccc3O)cccc21` [KM-5-25, 4-((5-Chloro-2-hydroxybenzyl)amino)isoindoline-1,3-dione], the solubility at 4 h in series [1] stood at 80 µM (≈ 24.2 µg/mL). For the same compound, the dissociation constant Kd on recombinant Pa BfrB was determined as 10 ± 2 µM. For the same compound, the IC50 in the series with P. aeruginosa PAO1 (planktonic cells) was found to be 31 ± 7 µM. Moreover, the MIC against A. baumannii 5075 (20 h) was found to be 40 µM (≈ 12.1 µg/mL); against A. baumannii ATCC 17978 (20 h) it was 40 µM (≈ 12.1 µg/mL); against A. baumannii ATCC 19606 (20 h) it was 30 µM (≈ 9.08 µg/mL).
The compound `O=C1NC(=O)c2c(NCc3c(O)cccc3Cl)cccc21` [KM-5-29] registered a solubility at 4 h in series [1] of 60 µM (≈ 18.2 µg/mL). At recombinant Pa BfrB, the Kd is 18 ± 3 µM. Also, in the series on P. aeruginosa PAO1 (planktonic cells), the half-maximal inhibitory concentration (IC50) worked out at 36 ± 5 µM. In addition, the MIC with A. baumannii 5075 (20 h), against A. baumannii ATCC 17978 (20 h) and against A. baumannii ATCC 19606 (20 h) was over 60 µM each time.
Consider `O=C1NC(=O)c2c(NCc3cccc(Cl)c3O)cccc21` [KM-5-30], for which the solubility at 4 h in series [1] worked out at 80 µM (≈ 24.2 µg/mL). The Kd on recombinant Pa BfrB was 11 ± 3 µM. Moreover, the IC50 in the series on P. aeruginosa PAO1 (planktonic cells) worked out at 57 ± 2 µM. Besides, the MIC in the series on A. baumannii 5075 (20 h), in the series on A. baumannii ATCC 17978 (20 h) and with A. baumannii ATCC 19606 (20 h) was over 80 µM in each case.
On to `O=C1NC(=O)c2c(NCc3cc(Br)ccc3O)cccc21` [KM-5-35, 4-((5-Bromo-2-hydroxybenzyl)amino)isoindoline-1,3-dione], for which, in series [1], the solubility at 4 h is listed as 60 µM (≈ 20.8 µg/mL). In addition, on recombinant Pa BfrB, the equilibrium dissociation constant (Kd) was determined as 9 ± 3 µM. The IC50 in the series with P. aeruginosa PAO1 (planktonic cells) stood at 27 ± 3 µM. For the same compound, the MIC turned out to be 40 µM (≈ 13.9 µg/mL) in the series on A. baumannii 5075 (20 h), 30 µM (≈ 10.4 µg/mL) against A. baumannii ATCC 17978 (20 h) and 30 µM (≈ 10.4 µg/mL) against A. baumannii ATCC 19606 (20 h).
In turn, `O=C1NC(=O)c2c(NCc3cc(Cl)ccc3O)ccc(Br)c21` [SB-16-51] displayed a solubility at 4 h in series [1] of 20 µM (≈ 7.63 µg/mL). The Kd at recombinant Pa BfrB amounted to 13 ± 2 µM. The half-inhibitory concentration (IC50) with P. aeruginosa PAO1 (planktonic cells) turned out to be 18 ± 3 µM. The figures for the MIC against A. baumannii 5075 (20 h), against A. baumannii ATCC 17978 (20 h) and in the series with A. baumannii ATCC 19606 (20 h) were 10 µM (≈ 3.82 µg/mL), 15 µM (≈ 5.72 µg/mL) and 15 µM (≈ 5.72 µg/mL), respectively.
As to `CC(C)(C)c1ccc(O)c(CNc2cccc3c2C(=O)NC3=O)c1` [SB-16-53], the solubility at 4 h in series [1] (setting [2]) amounted to 30 µM (≈ 9.73 µg/mL). For the same compound, the Kd on recombinant Pa BfrB was found to be 1 ± 0.2 µM. Moreover, in the series on P. aeruginosa PAO1 (setting [3]), the IC50 turned out to be 12 ± 6 µM. Also, the MIC in the series with A. baumannii 5075 (setting [4]), against A. baumannii ATCC 17978 (setting [5]) and against A. baumannii ATCC 19606 (setting [6]) was 30 µM (≈ 9.73 µg/mL) throughout.
In series [1], `O=C1NC(=O)c2c(NCc3cc(F)ccc3O)ccc(Br)c21` [SB-16-67] displayed a solubility at 4 h of 40 µM (≈ 14.6 µg/mL). The Kd on recombinant Pa BfrB worked out at 7 ± 1 µM. Further, in the series with P. aeruginosa PAO1 (planktonic cells), the IC50 was over 40 µM. For the same compound, the MIC against A. baumannii 5075 (20 h) is given as 40 µM (≈ 14.6 µg/mL); with A. baumannii ATCC 17978 (20 h) it was 20 µM (≈ 7.3 µg/mL); against A. baumannii ATCC 19606 (20 h) it was 30 µM (≈ 11 µg/mL).
Turning to `Cc1cc(Br)cc(CNc2cccc3c2C(=O)NC3=O)c1O` [SB-16-106], the solubility at 4 h in series [1] was found to be 30 µM (≈ 10.8 µg/mL). Moreover, the Kd at recombinant Pa BfrB is 3 ± 1 µM. The IC50 in the series on P. aeruginosa PAO1 (planktonic cells) was determined as 14 ± 4 µM. Moreover, the MIC is listed as 20 µM (≈ 7.22 µg/mL) with A. baumannii 5075 (20 h), 15 µM (≈ 5.42 µg/mL) against A. baumannii ATCC 17978 (20 h) and 30 µM (≈ 10.8 µg/mL) in the series on A. baumannii ATCC 19606 (20 h).
